In US6204284A, “Use of 1-(substitutedphenyl)-3-azabicyclo[3.1.0]hexanes for the treatment of chemical dependencies” (priority 1995, dated 2001):
“Also recorded” adds a separate entry of the source.

Legend:
[1] = system: Norepinephrine (NE) reuptake in rat brain synaptosomes; assay: Inhibition of rat synaptosomal uptake of 3H-norepinephrine; format: biochemical; conditions: rat diencephalic-mid brain crude synaptosomes; 3H-NE 2×10^-8 M; Hill analysis
Excerpt: (§1) Male Wistar rats weighing approximately 180-200 g are decapitated and their brains rapidly removed and dissected according to the method of Glowinski and Iversen. Glowinski, J. and Iversen, L. L., Regional studies of catecholamines in the rat brain I. The disposition of 3H-norepinephrine, 3H-dopamine and 3H-DOPA in various regions of the brain. J. Neurochem. 13:655-669, 1966.
(§2) Striatal tissues are pooled from three rat brains for the uptake of 3H-dopamine (3H-DA) and diencephalic-mid brain areas were used for the uptake of 3H-norepinephrine (3H-NE) and 3H-serotonin (3H-5HT). The tissues are immediately weighed and homogenized with a teflon-glass pestle homogenizer in 10 volumes of ice cold 0.32 M sucrose. The homogenates are centrifuged at 4° C. at 900×g for 10 minutes to remove nuclear particles and cellular debris. The supernatants are carefully withdrawn and transferred into clean test tubes kept in ice. Aliquots of these preparations containing crude synaptic nerve endings are used in subsequent uptake studies.
(§3) Amine uptake in crude synaptosomes is determined by a method essentially the same as that described by Snyder and Coyle, Snyder, S. H. and Coyle, J. T. Regional differences in 3H-norepinephrine and 3H-dopamine uptake into rat brain homogenates. J. Pharmacol. Exp. Ther. 165:78-86, 1969. Briefly, a 0.1 ml aliquot of the above tissue preparation is added to test tubes containing 3.7 ml of Krebs-Ringer phosphate buffer pH 7.4 with glucose (2 mg/ml), calcium chloride 0.024%, ascorbic acid (0.2 mg/ml) and nialamide (1.24×10^-5M). 1-(3,4-Dichlorophenyl)-3-azabicyclo[3.1.0]hexane hydrochloride at varying concentrations (0.01-2.5 μM) is added in a 0.1 ml volume. The incubation mixtures are agitated at 37° C. for 10 minutes under an atmosphere of 95% oxygen and 5% CO2 in a Dubnoff metabolic shaker to ensure irreversible inhibition of monoamine oxidase (MAO). After this initial pre-incubation period, the tubes are returned to the ice bath. 3H-DA, 3H-NE or 3H-5HT is added in a 0.1 ml volume to give a final concentration of labeled amine of 2×10^-8 M, and the incubation at 37° C. is continued for an additional 4 min. A set of tubes serving as control (uptake at 0° C.) is left in an ice bath. After the final incubation period, the samples are cooled in ice and then centrifuged at 4° C. at 10,000×g. The supernatant fluid is gently poured off from each tube. The surface of the pellet of each sample is washed with 5 ml of ice cold 0.9% sodium chloride which is then aspirated off without disturbing the pellet. The pellet is resuspended in a cintillation fluid ad radioactivity was determined. Protein content in the tissue samples is determined by the method of Lowry et al. Lowry, O. H., Rosebrough, N. J., Farr, A. L. and Randall, R. J. Protein measurement with the folin reagent. J. Biol. Chem. 193:265, 1951. The concentration of drug which inhibits the uptake of the labeled amine by 50% is determined by Hill analysis of the data.

[2] = system: Serotonin (5-HT) reuptake in rat brain synaptosomes; assay: Inhibition of rat synaptosomal uptake of 3H-serotonin; format: biochemical; conditions: rat diencephalic-mid brain crude synaptosomes; 3H-5HT 2×10^-8 M; Hill analysis
Excerpt: as §1, §2, §3

[3] = system: Dopamine (DA) reuptake in rat brain synaptosomes; assay: Inhibition of rat synaptosomal uptake of 3H-dopamine; format: biochemical; conditions: rat striatal crude synaptosomes; 3H-DA 2×10^-8 M; Hill analysis
Excerpt: as §1
Striatal tissues are pooled from three rat brains for the uptake of 3H-dopamine (3H-DA) and diencephalic-mid brain areas were used for the uptake of 3H-norepinephrine (3H-NE) and 3H-serotonin (3H-5HT). The tissues are immediately weighed and homogenized with a teflon-glass pestle homogenizer in 10 volumes of ice cold 0.32 M sucrose. […]
Amine uptake in crude synaptosomes is determined by a method essentially the same as that described by Snyder and Coyle, Snyder, S. H. and Coyle, J. T. Regional differences in 3H-norepinephrine and 3H-dopamine uptake into rat brain homogenates. […] The pellet is resuspended in a cintillation fluid ad radioactivity was determined. Protein content in the tissue samples is determined by the method of Lowry et al. Lowry, O. H., Rosebrough, N. J., Farr, A. L. and Randall, R. J. Protein measurement with the folin reagent. […] The concentration of drug which inhibits the uptake of the labeled amine by 50% is determined by Hill analysis of the data.

Male Wistar rats [4] = assay: Free-choice ethanol (6% v/v) vs tap water drinking, Part II; format: in vivo, rat; conditions: for Ethanol Intake / Food Consumption / Ethanol Preference / Total Fluid Intake: mean ± S.D.
Protocol: (§4) Male Wistar rats are presented with an everyday free-choice between a 6% (v/v) ethanol solution and tap water. Following a seven-day baseline period, which establishes a pattern of stable drinking, only those animals whose consumption is greater than 50% of their total fluid intake are given intraperitoneal injections of three drugs. In part I citalopram (positive control) a neuronal serotonin uptake inhibitor at a dose of 30 mg/kg, […], and 1-(3,4-dichlorophenyl)-3-azabicyclo[3.1.0]hexane hydrochloride, also a serotonin uptake inhibitor, at doses of 5, 10 and 20 mg/kg are given by intraperitoneal injection for seven days. In part II, animals are given intraperitoneal injections of diazepam at a dose of 10 mg/kg and again the positive control used is citalopram at 30 mg/kg. Treatment period for part II also is over a seven-day period. Following the seven-day treatment period, a post-treatment period which lasted for an additional seven days is conducted where the animals are presented with a free choice between ethanol and water in order to determine the rate of recovery of ethanol drinking. During baseline, drug treatment and post-treatment periods, ethanol consumption by the rats is calculated in terms of daily ethanol preference ratio (volume of ethanol per volume of total daily fluid intake) and in terms of daily absolute of ethanol ingested (g/kg body weight).
(§5) Two hundred (200) drug-naive male Wistar rats obtained from the Canadian Breeding Farm Laboratories in Charles River Canada are used. All animals weigh between 180-200 g at the beginning of the experiment.
(§6) All animals are individually housed in stainless steel cages, in a room regulated for constant temperature, humidity and a 12-hour light/dark cycle (7:00 a.m.-7:00 p.m.). Each cage is equipped with two calibrated glass Richter tubes to deliver the fluids (ethanol and water) to the animals. All animals are presented with a free choice between ethanol and tap water throughout the experiment. The drinking vessels are randomly reversed in order to avoid bias generated by a position preference in the animals. In addition, Purina Rat Chow is made available throughout the experiment on an ad libitum basis.
(§7) At approximately the same time every day, 1300 h, the volume in mls of ethanol and tap water consumed by each animal is recorded. All tubes are then removed from the cages, rinsed and refilled with the appropriate fluids, i.e., ethanol solution and tap water. Also, all animals are weighed and their corresponding body weights recorded. At this time, additional food is provided.
(§8) Drugs used in part I are dissolved in Ringers solution to form the required doses. Drugs used in part II are suspended in a vehicle which consists of a 2% pre-boiled starch solution containing 5% polyethylene glycol 400 and tween 80 (1 drop/10 ml vehicle). All drugs are administered intraperitoneally according to the schedule (see Treatment period).
Group 2--citalopram 30 mg/kg (n=7)
Group 3--diazepam 10 mg/kg (n=7)
(§9) Post-treatment period:--Upon cessation of the drug treatment period, the animals are presented with a free choice between 6% ethanol and tap water for an additional 7 days in order to determine the rate of recovery of ethanol drinking.

Male Wistar rats [5] = assay: Free-choice ethanol (6% v/v) vs tap water drinking, Part I; format: in vivo, rat; conditions: 30 mg/kg i.p. 7 days, mean ± S.D.
Protocol: as §4, §5, §6, §7, §8
Group 2--citalopram 30 mg/kg (n=10)
Group 3--1-(3,4-dichlorophenyl)-3-azabicyclo[3.1.0]hexane hydrochloride 5 mg/kg (n=10)
Group 4--1-(3,4-dichlorophenyl)-3-azabicyclo[3.1.0]hexane hydrochloride 10 mg/kg (n=10)
Group 5--1-(3,4-dichlorophenyl)-3-azabicyclo[3.1.0]hexane hydrochloride 20 mg/kg (n=10)
as §9

[6] = 30 mg/kg i.p. 7 days, Baseline period
[7] = 30 mg/kg i.p. 7 days, Baseline period, 30 mg/kg
[8] = 30 mg/kg i.p. 7 days, Baseline period, listed as citalopram, 30 mg/kg
[9] = 30 mg/kg i.p. 7 days, Post-Treatment period
[10] = 30 mg/kg i.p. 7 days, Treatment period, 30 mg/kg
[11] = 30 mg/kg i.p. 7 days, Treatment period, listed as citalopram, 30 mg/kg
[12] = Treatment period, listed as citalopram, 30 mg/kg
[13] = 10 mg/kg i.p. 7 days, Baseline period
[14] = 10 mg/kg i.p. 7 days, Post-Treatment period
[15] = 10 mg/kg i.p. 7 days, Treatment period, 10 mg/kg
[16] = 10 mg/kg i.p. 7 days, Treatment period, listed as diazepam, 10 mg/kg

Compound: COc1ccc(C23CNCC2C3)cc1Br (racemic) [±H 3-Br-4-OCH3]
- IC50 [1]: 318 nM
- IC50 [2]: 260 nM

Compound: c1ccc(C23CNCC2C3)cc1 (racemic) [±H H]
- IC50 [1]: 401 nM
- IC50 [2]: 470 nM

Compound: Cc1ccc(C23CNCC2C3)cc1 (racemic) [±H p-CH3]
- IC50 [1]: 741 nM
- IC50 [2]: 137 nM
- IC50 [3]: 2360 nM

Compound: Clc1ccc(C23CNCC2C3)cc1 (racemic) [±H p-Cl]
- IC50 [1]: 274 nM
- IC50 [2]: 169 nM

Compound: Fc1ccc(C23CNCC2C3)cc1 (racemic) [±H p-F]
- IC50 [2]: 811 nM

Compound: Cc1ccc(C23CNCC2C3)cc1 (single isomer, unassigned) [+H p-CH3]
- IC50 [1]: 215 nM
- IC50 [2]: 96 nM

Compound: Clc1ccc(C23CNCC2C3)cc1 (single isomer, unassigned) [+H p-Cl]
- IC50 [1]: 279 nM
- IC50 [2]: 55 nM

Compound: CN(C)CCCC1(c2ccc(F)cc2)OCc2cc(C#N)ccc21 (stereo not shown) [Citalopram]
- Ethanol Intake (Male Wistar rats [4]; [6]): 4.86 ± 1.09 g/kg body weight
- Food Consumption (Male Wistar rats [4]; [6]): 19.82 ± 1.87 g/day
- Ethanol Preference (Male Wistar rats [4]; [7]): 86.16 ± 14.74%
- Total Fluid Intake (Male Wistar rats [4]; [7]): 4.9042 ± 0.4583 mL/h/kg
- Ethanol Preference (Male Wistar rats [4]; [8]): 86.16%
- Total Fluid Intake (Male Wistar rats [4]; [8]): 4.9042 mL/h/kg
- Ethanol Intake (Male Wistar rats [4]; [9]): 3.87 ± 1.91 g/kg body weight
- Ethanol Preference (Male Wistar rats [4]; [9]): 68.90%
- Food Consumption (Male Wistar rats [4]; [9]): 19.86 g/day
- Total Fluid Intake (Male Wistar rats [4]; [9]): 4.7558 mL/h/kg
- Ethanol Intake (Male Wistar rats [4]; [10]): 2.95 ± 1.59 g/kg body weight
- Ethanol Preference (Male Wistar rats [4]; [10]): 69.17 ± 30.25%
- Food Consumption (Male Wistar rats [4]; [10]): 14.20 ± 2.76 g/day
- Total Fluid Intake (Male Wistar rats [4]; [10]): 3.616 ± 0.5479 mL/h/kg
- Ethanol Intake (Male Wistar rats [4]; [11]): partial effect
- Ethanol Preference (Male Wistar rats [4]; [11]): 69.17%
- Food Consumption (Male Wistar rats [4]; [11]): 14.20 g/day
- Total Fluid Intake (Male Wistar rats [4]; [11]): 3.616 mL/h/kg
- Food intake lower than baseline level during treatment (Male Wistar rats [4]; 30 mg/kg i.p. 7 days, Treatment vs baseline): approximately 25%
- Ethanol Intake (Male Wistar rats [5]; Baseline period): 4.49 ± 1.18 g/kg body weight
- Ethanol Preference (Male Wistar rats [5]; Baseline period): 75.78 ± 18.09%
- Food Consumption (Male Wistar rats [5]; Baseline period): 20.14 ± 1.71 g/day
- Total Fluid Intake (Male Wistar rats [5]; Baseline period): 5.1746 ± 0.5146 mL/h/kg
- Ethanol Intake (Male Wistar rats [5]; Post-Treatment period): 3.32 ± 1.86 g/kg body weight
- Ethanol Preference (Male Wistar rats [5]; Post-Treatment period): 57.81 ± 32.23%
- Food Consumption (Male Wistar rats [5]; Post-Treatment period): 21.47 ± 1.94 g/day
- Total Fluid Intake (Male Wistar rats [5]; Post-Treatment period): 5.0612 ± 0.6242 mL/h/kg
- Ethanol Intake (Male Wistar rats [5]; Treatment period): 2.34 ± 1.44 g/kg body weight
- Ethanol Preference (Male Wistar rats [5]; Treatment period, 30 mg/kg): 61.06 ± 35.09%
- Food Consumption (Male Wistar rats [5]; Treatment period, 30 mg/kg): 11.96 ± 3.56 g/day
- Total Fluid Intake (Male Wistar rats [5]; Treatment period, 30 mg/kg): 3.446 ± 0.394 mL/h/kg
- Ethanol Preference (Male Wistar rats [5]; [12]): slight but insignificant decrease in ethanol preference
- Food Consumption (Male Wistar rats [5]; [12]): significant decrease in food consumption
- Total Fluid Intake (Male Wistar rats [5]; [12]): 3.446 mL/h/kg

Compound: CN1C(=O)CN=C(c2ccccc2)c2cc(Cl)ccc21 [Diazepam]
- Ethanol Intake (Male Wistar rats [4]; [13]): 3.92 ± 1.75 g/kg body weight
- Ethanol Preference (Male Wistar rats [4]; [13]): 73.21 ± 26.62%
- Food Consumption (Male Wistar rats [4]; [13]): 21.24 ± 1.94 g/day
- Total Fluid Intake (Male Wistar rats [4]; [13]): 4.6321 ± 0.4679 mL/h/kg
- Ethanol Intake (Male Wistar rats [4]; [14]): 3.95 ± 1.91 g/kg body weight
- Ethanol Preference (Male Wistar rats [4]; [14]): 72.15%
- Food Consumption (Male Wistar rats [4]; [14]): 20.98 g/day
- Total Fluid Intake (Male Wistar rats [4]; [14]): 4.6487 mL/h/kg
- Ethanol Intake (Male Wistar rats [4]; [15]): 3.48 ± 1.51 g/kg body weight
- Ethanol Preference (Male Wistar rats [4]; [15]): 72.76 ± 28.03%
- Food Consumption (Male Wistar rats [4]; [15]): 20.75 ± 2.04 g/day
- Total Fluid Intake (Male Wistar rats [4]; [15]): 4.126 ± 0.369 mL/h/kg
- Ethanol Intake (Male Wistar rats [4]; [16]): no effect on ethanol intake; also recorded: no effect to attenuate voluntary ethanol consumption
- Ethanol Preference (Male Wistar rats [4]; [16]): virtually no change
- Food Consumption (Male Wistar rats [4]; [16]): no effect on food intake
- Total Fluid Intake (Male Wistar rats [4]; [16]): does not affect total fluid intake
